From publication PMC5234788 (PLoS ONE, 2017)

Experiments:
male CD-1 ICR mice = test: Elevated plus-maze test; assay type: in vivo
Excerpt: The elevated plus-maze test is widely used for the screening and evaluation of anxiolytic drugs. The apparatus consists of two open arms (30 cm × 5 cm) and two enclosed arms (30 cm × 5 cm × 15 cm), which is elevated 45 cm above the ground. The entire maze was made of clear Plexiglas and illuminated by four 30 W white lights with 300 lx light intensity arranged as a cross 100 cm above the maze. 48 male CD-1 ICR mice were randomly divided into either the vehicle group, one of three doses of l–THBr groups, or the diazepam group. 30 min after injection, mice were gently placed on the center platform facing an open arm, and the number of entries and the time spent in both arms were recorded by a video camera for 5 min. The results were expressed as the percentage of entries into the open arms (%) = (the number of entries into the open arms / the total number of entries into the four arms) × 100%; and the percentage of time spent in the open arms (%) = (time spent in the open arms / total time spent in the four arms) × 100%.
In a separate experiment, WAY100635 (a 5-HT1A antagonist) was used to test whether the anxiolytic-like activity of l-THBr is mediated by the activation of the 5-HT1A receptor. Forty male CD-1 ICR mice were randomly divided into one of four groups: vehicle, WAY100635 (3 mg/kg, i.p.), l–THBr (5 mg/kg, i.p.) or WAY100635 (3 mg/kg, i.p.) + l–THBr (5 mg/kg, i.p.). Mice were administered vehicle or WAY100635 followed by vehicle or l–THBr (5 mg/kg) injections 15 min later. The test was performed 30 min after the administration of l-THBr or vehicle.

Serotonin, 5HT7 (h) = system: T1, Serotonin, 5HT7 (h); test: Radio-ligand binding assay, Serotonin 5HT7; design: species or system human; details: 10 μM l-THBr
T1 construct: Caliper Lifescience
Experimental: (§1) To determine the possible targets of l-THBr action, the binding affinities of l-THBr to neurotransmitter receptors known to be involved in sedation, hypnosis and anxiety were investigated. Radio-ligand binding assays were performed by Caliper Lifescience (Hopkinton, MA, USA). The screening was carried out at a concentration of 10 μM l–THBr to test its ability to inhibit the binding of radioligands to their corresponding receptors. The results were expressed as percentage of inhibition of labeled ligand binding to individual receptors. Significant binding activity was defined as ≥50%.

Serotonin, 5HT2A = system: T2, Serotonin, 5HT2A; test: Radio-ligand binding assay, Serotonin 5HT2A; details: 10 μM l-THBr; radioligand [3H]Ketanserin
T2 construct: Caliper Lifescience
Experimental: as §1

GABA-B = system: T3, GABA-B; test: Radio-ligand binding assay, GABA-B; details: 10 μM l-THBr; radioligand [3H]CGP 54626A
T3 construct: Caliper Lifescience
Experimental: as §1

[1] = system: Glycline, Strychnine-sensitive; test: Radio-ligand binding assay, Glycine strychnine-sensitive; details: 10 μM l-THBr; radioligand [3H]Strchnine
Experimental: as §1

[2] = system: Glutamate, MK-801 (Ionotropic); test: Radio-ligand binding assay, Glutamate MK-801; details: 10 μM l-THBr; radioligand [3H] MK-801
Experimental: as §1

[3] = target: T4, human D2 dopamine receptor (Homo sapiens, UniProt P14416); test: biochemical; assay type: biochemical
T4 construct: host or cells: HEK293
Excerpt: D2-D4 dopamine receptors and 5-HT1A serotonin receptors are Gαi-coupled receptors that mediate inhibitory neurotransmission. We conducted [^35S]GTPγS assays to determine the agonist or antagonist properties of l-THBr at D2 dopamine receptors or 5-HT1A serotonin receptors. HEK293 cells stably expressing D2 receptors were provided by the Beijing Institute of Pharmacology and Toxicology (Beijing, China). The membrane preparation of D2-expressing HEK293 cells and rat hippocampal tissues highly expressing 5-HT1A receptors were prepared as previously described. Briefly, 10 SD rats were anesthetized and decapitated, and the hippocampi were quickly dissected and stored at -80°C until use. D2 receptor-expressing HEK293 cells and the hippocampal tissue were each homogenized at 4°C in 50 mM Tris-HCl buffer (pH 7.4). The homogenates were centrifuged at 2500 × g for 6 min, and the supernatant was further centrifuged for 20 min at 40000 × g. Membranes were re-suspended in Tris-HCl buffer and stored at -80°C until use.
[^35S]GTPγS assays were performed in a total volume of 0.5 ml at 4°C. […] Bound radioactivity was determined by liquid scintillation counting. Drug effects were expressed as drug-induced increase in binding over basal binding (binding in the absence of drugs). […] The inhibitory effect of l–THBr was determined by a similar equation to obtain the IC50 values.

D1 receptor = D1 receptor (Homo sapiens, UniProt P21728); test: cAMP assay for D1 receptor activity in CHO cells; assay type: cell-based
Excerpt: Dopamine receptors can be categorized into two classes: Gαs protein coupled receptors (D1 and D5), or Gαi protein coupled receptors (D2, D3, and D4). Activation of D1 receptors can excite adenylate cyclase activity and increase cyclic adenosine monophosphate (cAMP). cAMP assays were used to determine the agonist or antagonist properties of l-THBr at the dopamine D1 receptor.
CHO K1 cells stably expressing D1 receptors were purchased from Genscript (Catalogue Number: M00247, Gene Number NM_000794). The cells were seeded in Ham’s F12 containing 10% fetal bovine serum and 200 μg/ml zeocin. On the day of the assay, 5 μl of cell suspension (3000 cells) was seeded on a 384-well plate. The assay was performed according to the manufacturer’s instructions. To test for agonist effects at the D1 receptor, the compounds (a known D1 agonist […] or l-THBr) were added from stocks two-fold more concentrated than the final concentration. […] After incubation (30 min at room temperature), 10 μL of HTRF reagents (cAMP-XL665 and anti-cAMP cryptate) were added. The signal was quantified after one hour of incubation at room temperature. The fluorescence intensity ratio (A665nm/A620nm x10^4) was calculated.

Serotonin, 5HT3 = system: T5, Serotonin, 5HT3; test: Radio-ligand binding assay, Serotonin 5HT3; details: 10 μM l-THBr; radioligand [3H]GR 65630
T5 construct: Caliper Lifescience
Experimental: as §1

[4] = system: T6, Glutamate, NMDA, Glycine (stry-insens Site (Ionotropic)); test: Radio-ligand binding assay, Glutamate NMDA glycine site; details: 10 μM l-THBr; radioligand [3H]-MDL-105,519
T6 construct: Caliper Lifescience
Experimental: as §1

[5] = l-THBr 1 or 5 mg/kg, i.p., P < 0.05 vs control

Chain of D1 receptor (P21728 whole entry): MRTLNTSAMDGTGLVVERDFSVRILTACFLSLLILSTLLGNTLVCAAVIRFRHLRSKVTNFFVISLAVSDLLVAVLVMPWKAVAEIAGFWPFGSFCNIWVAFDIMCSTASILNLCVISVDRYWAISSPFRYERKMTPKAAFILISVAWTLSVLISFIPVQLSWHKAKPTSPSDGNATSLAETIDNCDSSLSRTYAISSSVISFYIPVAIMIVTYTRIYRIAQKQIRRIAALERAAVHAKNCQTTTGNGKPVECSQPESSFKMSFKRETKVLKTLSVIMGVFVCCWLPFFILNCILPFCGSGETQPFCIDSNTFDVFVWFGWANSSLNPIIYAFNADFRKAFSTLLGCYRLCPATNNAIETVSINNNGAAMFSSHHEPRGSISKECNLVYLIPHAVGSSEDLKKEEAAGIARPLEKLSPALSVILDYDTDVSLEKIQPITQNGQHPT
T4 sequence (P14416 whole entry): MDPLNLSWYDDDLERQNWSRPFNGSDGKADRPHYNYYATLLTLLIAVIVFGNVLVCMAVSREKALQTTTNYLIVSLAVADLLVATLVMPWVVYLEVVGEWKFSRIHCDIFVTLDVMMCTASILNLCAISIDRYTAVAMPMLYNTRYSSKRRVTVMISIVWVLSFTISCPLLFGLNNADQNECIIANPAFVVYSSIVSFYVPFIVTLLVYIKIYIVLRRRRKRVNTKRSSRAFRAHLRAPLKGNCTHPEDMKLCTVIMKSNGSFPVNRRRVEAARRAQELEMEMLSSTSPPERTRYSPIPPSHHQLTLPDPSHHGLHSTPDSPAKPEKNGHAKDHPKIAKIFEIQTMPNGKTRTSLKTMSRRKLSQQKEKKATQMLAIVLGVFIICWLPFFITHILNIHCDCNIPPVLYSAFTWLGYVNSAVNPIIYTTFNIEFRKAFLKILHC

## COc1ccc2c(c1O)CN1CCc3cc4c(cc3[C@@H]1C2)OCO4 [l-THBr, levo-tetrahydroberberrubine]
Male CD-1 ICR mice; l-THBr 5 mg/kg i.p. + WAY100635 3 mg/kg i.p. given 15 min earlier
  anxiolytic-like effects (open arm entries and time) on co-administration of 5-HT1A antagonist WAY100635: significantly reversed
Male CD-1 ICR mice; [5]
  ratio of entries into the open arms: increased
  ratio of time spent in the open arms: increased
Serotonin, 5HT7 (h)
  Activity: Yes (Significant binding affinity of l-THBr was defined as greater than 50% inhibition of ligand binding)
Serotonin, 5HT7 (h); radioligand [3H]LSD
  Average inhibition percentage: 54.82%
Serotonin, 5HT2A
  Average inhibition percentage: 40.90%
GABA-B
  Average inhibition percentage: -6.94%
[1]
  Average inhibition percentage: 21.26%
[2]
  Average inhibition percentage: 6.41%
[3]
  IC50: 5.26 nM
  dose-dependent increase in [35S]GTPγS binding (agonist effect): but not l-THBr induced a dose-dependent increase
D1 receptor
  IC50: 361 nM
D1 receptor; CHO cells stably expressing the D1 receptor, agonist test
  dose-dependent increase in cAMP production (agonist effect): but not l-THBr induced a dose-dependent increase
D1 receptor; CHO, read-out: maximum inhibition of cAMP production
  inhibition at 10 µM: 98.8%
Serotonin, 5HT3
  Average inhibition percentage: 23.02%
[4]
  Average inhibition percentage: 1.79%
